Where only a bound is given, the exact number is not on record here.

The experiment concerns Hh-signalling cascade. Briefly: Inhibition of SHh-induced alkaline phosphatase in C3H10T1/2 cells (Hh-signalling cascade inhibition). Type of experiment: cell-based. The settings on record: Mus musculus, C3H 10T1/2, half maximal inhibition of SHh (0.3 μg/ml) stimulation of cell alkaline phosphatase. The source says: C3H10T1/2 Cells were used for identification of inhibitors of SHh-protein signaling cascade. SHh-protein activates C3H10T1/2 cells, that leads to their osteogenic differentiation [1) Kinto N., Iwamoto M., Enomoto-Iwamoto M., Noji S., Ohuchi H., Yoshioka H., Kataoka H., Wada Y., Yuhao G., Takahashi H. E., Yoshiki S., Yamaguchi A. Fibroblasts expressing Sonic hedgehog induce osteoblast differentiation and ectopic bone formation. FEBS Lett. 1997; 404(2-3): 319-23. 2) Spinella-Jaegle S., Rawadi G., Kawai S., Gallea S., Faucheu C., Mollat P., Courtois B., Bergaud B., Ramez V., Blanchet A. M., Adelmant G., Baron R., Roman-Roman S. Sonic hedgehog increases the commitment of pluripotent mesenchymal cells into the osteoblastic lineage and abolishes adipocytic differentiation. J. Cell Sci. 2001; 114(Pt 11): 2085-94] and, in particular, to expression enhancement of alkaline phosphatase enzyme.
The cells were cultivated in DMEM medium with 10% embryonal calfish serum in incubator at 37° C., 100% humidity and 5% CO2 content. The cells were placed in 384-well plates and left for night. On the next day the tested compounds in concentration of 10 μM were added to the cells, incubated for 30 min, then recombinant (R & D Systems, USA) SHh protein in concentration of 0.3 μg/ml was added and incubation was continued for 3 days. Cells with DMSO instead of a test compound and cells without SHh protein were used as test control. For determination of the cell alkaline phosphatase activity the cells were lysed in the buffer containing 0.2% Triton-X100, lisates were incubated together with proluminescent substrate CSPD (Applied Biosystems, USA) and the resultant luminescence was measured using reader VICTOR^2V (PerkinElmer, USA).
The ability of the compounds to inhibit Hh-signalling cascade was determined using C3H10T1/2 cells in 384-well plates as described in example 1. The compounds were added in triplicates in various concentrations, prepared by multiple dilution of starting solutions (concentration dependences of cell alkaline phosphatase inhibition induced by the addition of tested compounds are shown in FIG. 1). Activity of the compounds was characterized by their concentrations produced half maximal inhibition of stimulation of cell alkaline phosphatase SHh (IC50).
By IC50 is commonly meant the midpoint of a concentration-inhibition curve. The low end stands for inhibition by little substance, the high end for a need for much substance. In turn, `O=C(NCC1CCCO1)C1CCN(C(=O)c2cc3sccc3n2Cc2ccc(Cl)cc2)CC1` (centres unmarked) [V-1046, 1-[4-(4-Chlorobenzyl)-4H-thieno[3,2-b]pyrrole-5-carbonyl]piperidine-4-carboxylic acid [(tetrahydrofuran-2-yl)methyl]amide] registered an IC50 below 5 µM.
To `COCCCNC(=O)C1CCN(C(=O)c2cc3sccc3n2Cc2ccc(Cl)cc2)CC1` [V-1047, 1-[4-(4-Chlorobenzyl)-4H-thieno[3,2-b]pyrrole-5-carbonyl]piperidine-4-carboxylic acid (3-methoxypropyl)amide] belongs below 0.5 µM; to `CN1CCN(C(=O)C2CCN(C(=O)c3cc4sccc4n3Cc3ccc(F)cc3)CC2)CC1` [V-1048, [4-(4-Fluorobenzyl)-4H-thieno[3,2-b]pyrrol-5-yl]-[4-(4-methylpiperazine-1-carbonyl)piperidin-1-yl]methanone], below 0.5 µM.
For `CN1CCN(C(=O)C2CCN(C(=O)c3cc4sccc4n3Cc3cccc(Cl)c3)CC2)CC1` [V-1049, [4-(3-Chlorobenzyl)-4H-thieno[3,2-b]pyrrol-5-yl]-[4-(4-methylpiperazine-1-carbonyl)piperidin-1-yl]methanone] the value was below 0.5 µM; for `CN1CCN(C(=O)C2CCN(C(=O)c3cc4sccc4n3Cc3cccc(F)c3)CC2)CC1` [V-1050, [4-(3-Fluorobenzyl)-4H-thieno[3,2-b]pyrrol-5-yl]-[4-(4-methylpiperazine-1-carbonyl)piperidin-1-yl]methanone], below 0.5 µM.
To `CN1CCN(C(=O)C2CCN(C(=O)c3cc4sccc4n3Cc3ccccc3F)CC2)CC1` [V-1051, [4-(2-Fluorobenzyl)-4H-thieno[3,2-b]pyrrol-5-yl]-[4-(4-methylpiperazine-1-carbonyl)piperidin-1-yl]methanone] belongs below 0.5 µM; to `CN1CCN(C(=O)C2CCN(C(=O)c3cc4sccc4n3Cc3ccccc3Cl)CC2)CC1` [V-1052, [4-(2-Chlorobenzyl)-4H-thieno[3,2-b]pyrrol-5-yl]-[4-(4-methylpiperazine-1-carbonyl)piperidin-1-yl]methanone], below 0.5 µM.
Take `COc1ccc(Cn2c(C(=O)N3CCC(C(=O)N4CCN(C)CC4)CC3)cc3sccc32)cc1` [V-1053, [4-(4-Methoxybenzyl)-4H-thieno[3,2-b]pyrrol-5-yl]-[4-(4-methylpiperazine-1-carbonyl)piperidin-1-yl]methanone]: the IC50 was below 0.5 µM.
`CN1CCN(C(=O)C2CCN(C(=O)c3cc4sccc4n3Cc3ccc(N(C)C)cc3)CC2)CC1` [V-1054, [4-(4-Dimethylaminobenzyl)-4H-thieno[3,2-b]pyrrol-5-yl]-[4-(4-methylpiperazine-1-carbonyl)piperidin-1-yl]methanone] came in with an IC50 below 0.5 µM.
To `CN1CCN(C(=O)C2CCN(C(=O)c3cc4sccc4n3Cc3ccc4c(c3)OCO4)CC2)CC1` [V-1055, [4-(3,4-Methylendioxybenzyl)-4H-thieno[3,2-b]pyrrol-5-yl]-[4-(4-methylpiperazine-1-carbonyl)piperidin-1-yl]methanone] belongs below 0.5 µM; to `CCOc1ccc(NC(=O)c2ccnc(N3CCC(C(=O)Nc4ccc(F)cc4)CC3)c2)cc1` [VI-1007, 3,4,5,6-Tetrahydro-2H-[1,2′]bipyridinyl-4,4′-carboxylic acid 4′-[(4-ethoxyphenyl)amide] 4-[(4-fluorophenyl)amide]], below 5 µM; to `CS(=O)(=O)N1CCCc2cc(C(=O)Nc3ccc4c(c3)OCO4)ccc21` [VII-1005, 1-Methylsulfonyl-1,2,3,4-tetrahydroquinoline-6-carboxylic acid (benzo[1,3]dioxol-5-yl)amide], below 0.5 µM.
`O=C(Nc1ccc(F)cc1)c1ccc2c(c1)CCCN2S(=O)(=O)c1ccccc1` [VII-1012, 1-Phenylsulfonyl-1,2,3,4-tetrahydroquinoline-6-carboxylic acid (4-fluorophenyl)amide] returned an IC50 below 5 µM.
In turn, `COc1ccc(NC(=O)c2ccc3c(c2)CCCN3S(=O)(=O)c2ccc(C)cc2)cc1` [VII-1014, 1-Tosyl-1,2,3,4-tetrahydroquinoline-6-carboxylic acid (4-methoxyphenyl)amide] yielded an IC50 below 5 µM.

(Values after patent publication US8486945B2, “Heterocyclic inhibitors of an Hh-signal cascade, medicinal compositions based thereon and methods for treating diseases caused by the aberrant activity of an Hh-signal system” (priority 2007, dated 2013).)
